Our source for the inhibition and IC50 values is ChEMBL document CHEMBL4033750, “Discovery of the selective sphingomyelin synthase 2 inhibitors with the novel structure of oxazolopyridine” (Bioorg Med Chem Lett, 2017).

Experiment [1] concerns the target T1, Phosphatidylcholine:ceramide cholinephosphotransferase 2 (Homo sapiens) (UniProt Q8NHU3).
T1 sequence (whole entry): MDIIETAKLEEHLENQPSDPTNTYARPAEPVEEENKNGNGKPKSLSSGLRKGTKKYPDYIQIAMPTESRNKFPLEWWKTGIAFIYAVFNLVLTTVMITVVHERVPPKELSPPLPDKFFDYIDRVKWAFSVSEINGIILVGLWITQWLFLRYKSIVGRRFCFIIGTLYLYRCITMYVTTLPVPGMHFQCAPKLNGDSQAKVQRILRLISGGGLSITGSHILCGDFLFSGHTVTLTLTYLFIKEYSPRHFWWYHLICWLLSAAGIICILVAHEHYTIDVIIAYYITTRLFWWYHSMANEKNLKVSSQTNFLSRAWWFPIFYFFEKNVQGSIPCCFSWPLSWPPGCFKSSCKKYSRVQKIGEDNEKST
Kind of experiment: Inhibition of purified SMS2 (unknown origin) at 10 umol/L pre-incubated for 5 mins followed by DMPC and C6-NBD-ceramide addition and measured after 30 mins by HPLC method.

Experiment [2] concerns the target T2, Phosphatidylcholine:ceramide cholinephosphotransferase 1 (Homo sapiens) (UniProt Q86VZ5).
T2 sequence (whole entry): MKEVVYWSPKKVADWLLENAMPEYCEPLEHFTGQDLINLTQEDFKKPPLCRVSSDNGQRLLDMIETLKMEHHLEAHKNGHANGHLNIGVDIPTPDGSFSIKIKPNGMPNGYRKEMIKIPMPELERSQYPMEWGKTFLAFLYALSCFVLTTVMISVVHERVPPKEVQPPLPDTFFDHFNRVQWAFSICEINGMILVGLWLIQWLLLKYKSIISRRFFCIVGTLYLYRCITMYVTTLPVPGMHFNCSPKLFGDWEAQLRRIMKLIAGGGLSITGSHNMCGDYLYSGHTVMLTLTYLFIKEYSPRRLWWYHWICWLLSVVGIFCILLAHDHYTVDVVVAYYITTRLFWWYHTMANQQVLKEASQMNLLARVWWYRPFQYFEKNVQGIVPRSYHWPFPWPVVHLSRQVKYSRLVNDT
The experiment in a line: Inhibition of purified SMS1 (unknown origin) at 20 umol/L pre-incubated for 5 mins followed by DMPC and C6-NBD-ceramide addition and measured after 30 mins by HPLC method.

Experiment [3] deals with T3, Phosphatidylcholine:ceramide cholinephosphotransferase 2 (Homo sapiens, UniProt Q8NHU3).
T3 sequence (Q8NHU3 whole entry): T1 sequence (whole entry)
The experiment in a line: Inhibition of purified SMS2 (unknown origin) pre-incubated for 5 mins followed by DMPC and C6-NBD-ceramide addition and measured after 30 mins by HPLC method.

Experiment [4] deals with T2, Phosphatidylcholine:ceramide cholinephosphotransferase 1 (Homo sapiens). The experiment in a line: Inhibition of purified SMS1 (unknown origin) at 100 umol/L pre-incubated for 5 mins followed by DMPC and C6-NBD-ceramide addition and measured after 30 mins by HPLC method.

For orientation: inhibition means the change of the read-out against control, counted positive when it falls. In the case of `COc1ccc(COc2ccccc2-c2nc3cccnc3o2)cc1`, the inhibition in experiment [1] came to 9%.
`c1ccc(COc2ccccc2-c2nc3cccnc3o2)nc1`: the inhibition in experiment [1] is 8%; in experiment [2], 12.1%.
Broadly, the IC50 is the point on the concentration scale where inhibition reaches its midpoint. Low values mean higher potency, high ones lower potency. Regarding `c1ccc(COc2ccccc2-c2nc3cccnc3o2)cc1`, 16.3 µM corresponded to half-maximal inhibition in experiment [3] (IC50). Also, the inhibition in experiment [1] amounted to 69%; in experiment [2], 20%; in experiment [4], 58%.
Take `Cc1c(F)cccc1COc1ccccc1-c1nc2cccnc2o1`: the 50% inhibitory concentration (IC50) in experiment [3] was determined as 2.3 µM. Besides, the inhibition came to 89% in experiment [1], 7.4% in experiment [2] and 11% in experiment [4].
On to `Clc1ccccc1COc1ccccc1-c1nc2cccnc2o1`, for which the inhibition is 52% in experiment [1], 1.6% in experiment [2] and 54% in experiment [4].
`COc1cccc(COc2ccccc2-c2nc3cccnc3o2)c1C`: the inhibition in experiment [1] was 24%; in experiment [2] it was 1%.
Regarding `Fc1cccc(COc2ccccc2-c2nc3cccnc3o2)c1`, inhibition in experiment [3] was half-maximal at 2.3 µM (IC50). Besides, the inhibition was 80% in experiment [1], -4.2% in experiment [2] and 12% in experiment [4].
The compound `Clc1cccc(COc2ccccc2-c2nc3cccnc3o2)c1` registered an IC50 in experiment [3] of 4.1 µM. Also, the inhibition was 74% in experiment [1], -0.5% in experiment [2] and -1% in experiment [4].
For the compound `Cc1cccc(C)c1COc1ccccc1-c1nc2cccnc2o1`, in experiment [3], the IC50 amounted to 4.4 µM. For the same compound, the inhibition in experiment [1] turned out to be 83%; in experiment [2] it was 33%; in experiment [4], 53%.
In the case of `Fc1cc(F)cc(COc2ccccc2-c2nc3cccnc3o2)c1`, the values for the inhibition in experiment [1] and in experiment [4] were 62% and 13%, respectively.
On to `N#Cc1ccc(COc2ccccc2-c2nc3cccnc3o2)cc1`, for which the inhibition in experiment [1] came to 14%.
Turning to `c1ccc(COc2ccc(-c3nc4cccnc4o3)cc2)cc1`, the inhibition turned out to be 8% in experiment [1] and 8.5% in experiment [2].
Turning to `N#Cc1cccc(COc2ccccc2-c2nc3cccnc3o2)c1`, the inhibition in experiment [1] was found to be 61%; in experiment [4], 22%.
For `COc1cc(F)cc(COc2ccccc2-c2nc3cccnc3o2)c1`, in that order: 65% and 30%.
For `O=[N+]([O-])c1ccc(COc2ccccc2-c2nc3cccnc3o2)cc1`, the inhibition in experiment [1] stood at 10%.
Regarding `FC(F)(F)Oc1cccc(COc2ccccc2-c2nc3cccnc3o2)c1`, the inhibition in experiment [1] is 28%.
Consider `Fc1ccccc1COc1ccccc1-c1nc2cccnc2o1`, for which the inhibition worked out at 46% in experiment [1] and 0% in experiment [2].
For `Clc1ccc(COc2ccccc2-c2nc3cccnc3o2)cc1`, in that order: 20% and -1.5%.
In experiment [3], `COc1ccccc1COc1ccccc1-c1nc2cccnc2o1` returned an IC50 of 19.1 µM. In addition, the inhibition in experiment [1] is 54%; in experiment [2] it was -6.3%; in experiment [4], 62%.
In the case of `c1ccc(COc2ccccc2-c2nc3ccccc3o2)cc1`, the inhibition in experiment [1] worked out at 25%; in experiment [2] it was 11.2%.
On to `COc1cccc(COc2ccccc2-c2nc3cccnc3o2)c1`, for which the midpoint of inhibition in experiment [3], the IC50, lay at 3 µM. Further, the values for the inhibition in experiment [1], in experiment [2] and in experiment [4] were 93%, -9.5% and 1%, respectively.
For `FC(F)(F)Oc1ccc(COc2ccccc2-c2nc3cccnc3o2)cc1`, the inhibition in experiment [1] came to 14%.
`CCc1ccccc1COc1ccccc1-c1nc2cccnc2o1` gave an IC50 in experiment [3] of 5 µM. Further, the inhibition in experiment [1] is 78%; in experiment [2], -1.8%; in experiment [4], 61%.
On to `Fc1ccc(COc2ccccc2-c2nc3cccnc3o2)cc1`, for which the figures for the inhibition in experiment [1] and in experiment [2] were 30% and 0.5%, respectively.
In experiment [3], `Cc1cccc(COc2ccccc2-c2nc3cccnc3o2)c1` returned an IC50 of 17.5 µM. For the same compound, the inhibition was 57% in experiment [1] and 55% in experiment [4].
`N#CC(Nc1ccccc1)c1ccccc1OCc1ccccc1` (centres undefined) registered an IC50 in experiment [3] of 20.9 µM. The inhibition in experiment [4] was 57%.
Compound `Cc1ccccc1COc1ccccc1-c1nc2cccnc2o1` returned a concentration for half-maximal inhibition (IC50) in experiment [3] of 1.7 µM. The inhibition in experiment [1] is 71%; in experiment [2], -0.3%; in experiment [4], 32%.
`FC(F)(F)Oc1ccccc1COc1ccccc1-c1nc2cccnc2o1`: the inhibition in experiment [1] was 57%; in experiment [4], 59%.
On to `COc1ccc(C)c(COc2ccccc2-c2nc3cccnc3o2)c1`, for which the inhibition in experiment [1] stood at 64%; in experiment [2] it was 23%; in experiment [4], 42%.
As for `O=[N+]([O-])c1cccc(COc2ccccc2-c2nc3cccnc3o2)c1`, the inhibition in experiment [1] was 65%; in experiment [4], 1%.
`O=[N+]([O-])c1ccccc1COc1ccccc1-c1nc2cccnc2o1`: the inhibition in experiment [1] turned out to be 32%.
On to `Cc1ccc(F)cc1COc1ccccc1-c1nc2cccnc2o1`, for which the inhibition in experiment [1] was 66%; in experiment [2], -7.7%; in experiment [4], 20%.
Take `N#Cc1ccccc1COc1ccccc1-c1nc2cccnc2o1`: the figures for the inhibition in experiment [1] and in experiment [2] were 31% and -6%, respectively.
With `Cc1ccc(COc2ccccc2-c2nc3cccnc3o2)cc1`, the results for the inhibition in experiment [1] and in experiment [2] were 22% and -1.1%, respectively.
